This data set can be described thus: molar enthalpy of vaporization or sublimation. Conditions: 298.15 K, Calvet microcalorimetry.

Numbers after ± are expanded uncertainties.

The values below come from the NIST ThermoML archive (doi:10.1016/j.jct.2009.05.018).

Take `Cn1ccc2ccccc21` [1-methylindole]: under “Liquid”, the molar enthalpy is 14.9 ± 0.765 kcal/mol.
As for `Cc1cc2ccccc2[nH]1` [2-methylindole], the molar enthalpy (Crystal) was 21.2 ± 1.15 kcal/mol.
The same measure, in the same setting: the value for `Cc1c[nH]c2ccccc12` [3-methyl-1H-indole] was 21.6 ± 0.908 kcal/mol.
